According to ChEMBL document CHEMBL2396528, “Synthesis of new conjugated coumarin-benzimidazole hybrids and their anticancer activity” (2013):

Assays:
Assay type in all cases: functional
HOP-62 = experiment: Cytotoxicity against human HOP62 cells assessed as growth inhibition at 10 uM after 48 hrs by SRB assay relative to control; conditions: HOP-62, 48 h, read-out: GI
SK-MEL-2 = experiment: Cytotoxicity against human SK-MEL-2 cells assessed as growth inhibition at 10 uM after 48 hrs by SRB assay relative to control; conditions: SK-MEL-2, 48 h, read-out: GI
HCC 2998 = experiment: Cytotoxicity against human HCC2998 cells assessed as growth inhibition at 10 uM after 48 hrs by SRB assay relative to control; conditions: HCC 2998, 48 h, read-out: GI
NCI-H226 = experiment: Cytotoxicity against human NCI-H226 cells assessed as growth inhibition at 10 uM after 48 hrs by SRB assay relative to control; conditions: NCI-H226, 48 h, read-out: GI
DU-145 = experiment: Cytotoxicity against human DU145 cells assessed as growth inhibition at 10 uM after 48 hrs by SRB assay relative to control; conditions: DU-145, 48 h, read-out: GI
KM12 = experiment: Cytotoxicity against human KM12 cells assessed as growth inhibition at 10 uM after 48 hrs by SRB assay relative to control; conditions: KM12, 48 h, read-out: GI
UACC-257 = experiment: Cytotoxicity against human UACC257 cells assessed as growth inhibition at 10 uM after 48 hrs by SRB assay relative to control; conditions: UACC-257, 48 h, read-out: GI
PC-3 = experiment: Cytotoxicity against human PC3 cells assessed as growth inhibition at 10 uM after 48 hrs by SRB assay relative to control; conditions: PC-3, 48 h, read-out: GI
NCI-H23 = experiment: Cytotoxicity against human NCI-H23 cells assessed as growth inhibition at 10 uM after 48 hrs by SRB assay relative to control; conditions: NCI-H23, 48 h, read-out: GI
SK-MEL-5 = experiment: Cytotoxicity against human SK-MEL-5 cells assessed as growth inhibition at 10 uM after 48 hrs by SRB assay relative to control; conditions: SK-MEL-5, 48 h, read-out: GI
U-251 = experiment: Cytotoxicity against human U251 cells assessed as growth inhibition at 10 uM after 48 hrs by SRB assay relative to control; conditions: U-251, 48 h, read-out: GI
Malme-3M = experiment: Cytotoxicity against human MALME-3M cells assessed as growth inhibition at 10 uM after 48 hrs by SRB assay relative to control; conditions: read-out: GI
[1] = Cytotoxicity against human NCI-ADR-RES cells assessed as growth inhibition at 10 uM after 48 hrs by SRB assay relative to control; conditions: read-out: GI
CCRF-CEM = experiment: Cytotoxicity against human CCRF-CEM cells assessed as growth inhibition at 10 uM after 48 hrs by SRB assay relative to control; conditions: read-out: GI
OVCAR-3 = experiment: Cytotoxicity against human OVCAR3 cells assessed as growth inhibition at 10 uM after 48 hrs by SRB assay relative to control; conditions: OVCAR-3, 48 h, read-out: GI
SF-539 = experiment: Cytotoxicity against human SF539 cells assessed as growth inhibition at 10 uM after 48 hrs by SRB assay relative to control; conditions: SF-539, 48 h, read-out: GI
BT-549 = experiment: Cytotoxicity against human BT549 cells assessed as growth inhibition at 10 uM after 48 hrs by SRB assay relative to control; conditions: BT-549, 48 h, read-out: GI
MDA-MB-468 = experiment: Cytotoxicity against human MDA-MB-468 cells assessed as growth inhibition at 10 uM after 48 hrs by SRB assay relative to control; conditions: MDA-MB-468, 48 h, read-out: GI
SNB-75 = experiment: Cytotoxicity against human SNB75 cells assessed as growth inhibition at 10 uM after 48 hrs by SRB assay relative to control; conditions: SNB-75, 48 h, read-out: GI
SF-268 = experiment: Cytotoxicity against human SF268 cells assessed as growth inhibition at 10 uM after 48 hrs by SRB assay relative to control; conditions: SF-268, 48 h, read-out: GI
MDA-MB-231 = experiment: Cytotoxicity against human MDA-MB-231 cells assessed as growth inhibition at 10 uM after 48 hrs by SRB assay relative to control; conditions: MDA-MB-231, 48 h, read-out: GI
NCI-H522 = experiment: Cytotoxicity against human NCI-H522 cells assessed as growth inhibition at 10 uM after 48 hrs by SRB assay relative to control; conditions: NCI-H522, 48 h, read-out: GI
LOX IMVI = experiment: Cytotoxicity against human LOXIMVI cells assessed as growth inhibition at 10 uM after 48 hrs by SRB assay relative to control; conditions: read-out: GI
HCT-15 = experiment: Cytotoxicity against human HCT15 cells assessed as growth inhibition at 10 uM after 48 hrs by SRB assay relative to control; conditions: HCT-15, 48 h, read-out: GI
SR = experiment: Cytotoxicity against human SR cells assessed as growth inhibition at 10 uM after 48 hrs by SRB assay relative to control; conditions: read-out: GI
HCT-116 = experiment: Cytotoxicity against human HCT116 cells assessed as growth inhibition at 10 uM after 48 hrs by SRB assay relative to control; conditions: HCT-116, 48 h, read-out: GI
HOP-92 = experiment: Cytotoxicity against human HOP92 cells assessed as growth inhibition at 10 uM after 48 hrs by SRB assay relative to control; conditions: HOP-92, 48 h, read-out: GI
SF-295 = experiment: Cytotoxicity against human SF295 cells assessed as growth inhibition at 10 uM after 48 hrs by SRB assay relative to control; conditions: SF-295, 48 h, read-out: GI
UO-31 = experiment: Cytotoxicity against human UO31 cells assessed as growth inhibition at 10 uM after 48 hrs by SRB assay relative to control; conditions: UO-31, 48 h, read-out: GI
Hs-578T = experiment: Cytotoxicity against human Hs578T cells assessed as growth inhibition at 10 uM after 48 hrs by SRB assay relative to control; conditions: read-out: GI
OVCAR-4 = experiment: Cytotoxicity against human OVCAR4 cells assessed as growth inhibition at 10 uM after 48 hrs by SRB assay relative to control; conditions: OVCAR-4, 48 h, read-out: GI
K562 = experiment: Cytotoxicity against human K562 cells assessed as growth inhibition at 10 uM after 48 hrs by SRB assay relative to control; conditions: K562, 48 h, read-out: GI
IGROV-1 = experiment: Cytotoxicity against human IGROV1 cells assessed as growth inhibition at 10 uM after 48 hrs by SRB assay relative to control; conditions: IGROV-1, 48 h, read-out: GI
OVCAR-8 = experiment: Cytotoxicity against human OVCAR8 cells assessed as growth inhibition at 10 uM after 48 hrs by SRB assay relative to control; conditions: OVCAR-8, 48 h, read-out: GI
SW-620 = experiment: Cytotoxicity against human SW620 cells assessed as growth inhibition at 10 uM after 48 hrs by SRB assay relative to control; conditions: SW-620, 48 h, read-out: GI

## CN1CCN(c2ccc3cc(-c4nc5ccccc5[nH]4)c(=O)oc3c2)CC1
HOP-62
  inhibition of growth at 10 µM: < 20%
SK-MEL-2
  inhibition of growth at 10 µM: < 20%
HCC 2998
  inhibition of growth at 10 µM: < 20%
NCI-H226
  inhibition of growth at 10 µM: < 20%
DU-145
  inhibition of growth at 10 µM: < 20%
KM12
  inhibition of growth at 10 µM: < 20%
UACC-257
  inhibition of growth at 10 µM: 25.3%
PC-3
  inhibition of growth at 10 µM: < 20%
NCI-H23
  inhibition of growth at 10 µM: 25.5%
SK-MEL-5
  inhibition of growth at 10 µM: < 20%
U-251
  inhibition of growth at 10 µM: < 20%
Malme-3M
  inhibition of growth at 10 µM: < 20%
[1]
  inhibition of growth at 10 µM: < 20%
CCRF-CEM
  inhibition of growth at 10 µM: 26.5%
OVCAR-3
  inhibition of growth at 10 µM: < 20%
SF-539
  inhibition of growth at 10 µM: < 20%
BT-549
  inhibition of growth at 10 µM: < 20%
MDA-MB-468
  inhibition of growth at 10 µM: 31.7%
SNB-75
  inhibition of growth at 10 µM: < 20%
SF-268
  inhibition of growth at 10 µM: < 20%
MDA-MB-231
  inhibition of growth at 10 µM: < 20%
NCI-H522
  inhibition of growth at 10 µM: < 20%
LOX IMVI
  inhibition of growth at 10 µM: < 20%
HCT-15
  inhibition of growth at 10 µM: < 20%
SR
  inhibition of growth at 10 µM: < 20%
HCT-116
  inhibition of growth at 10 µM: < 20%
HOP-92
  inhibition of growth at 10 µM: 41.1%
SF-295
  inhibition of growth at 10 µM: < 20%
UO-31
  inhibition of growth at 10 µM: 34.6%
Hs-578T
  inhibition of growth at 10 µM: < 20%
OVCAR-4
  inhibition of growth at 10 µM: 29.8%
K562
  inhibition of growth at 10 µM: 56.4%
IGROV-1
  inhibition of growth at 10 µM: 20.1%
OVCAR-8
  inhibition of growth at 10 µM: < 20%
SW-620
  inhibition of growth at 10 µM: < 20%

## NCCNc1ccc2cc(-c3nc4ccccc4[nH]3)c(=O)oc2c1
HOP-62
  inhibition of growth at 10 µM: < 20%
SK-MEL-2
  inhibition of growth at 10 µM: < 20%
HCC 2998
  inhibition of growth at 10 µM: < 20%
NCI-H226
  inhibition of growth at 10 µM: < 20%
DU-145
  inhibition of growth at 10 µM: < 20%
KM12
  inhibition of growth at 10 µM: < 20%
UACC-257
  inhibition of growth at 10 µM: < 20%
PC-3
  inhibition of growth at 10 µM: 20.3%
NCI-H23
  inhibition of growth at 10 µM: < 20%
SK-MEL-5
  inhibition of growth at 10 µM: < 20%
U-251
  inhibition of growth at 10 µM: < 20%
Malme-3M
  inhibition of growth at 10 µM: < 20%
[1]
  inhibition of growth at 10 µM: < 20%
CCRF-CEM
  inhibition of growth at 10 µM: < 20%
OVCAR-3
  inhibition of growth at 10 µM: < 20%
SF-539
  inhibition of growth at 10 µM: < 20%
BT-549
  inhibition of growth at 10 µM: < 20%
MDA-MB-468
  inhibition of growth at 10 µM: < 20%
SNB-75
  inhibition of growth at 10 µM: < 20%
SF-268
  inhibition of growth at 10 µM: < 20%
MDA-MB-231
  inhibition of growth at 10 µM: 34%
NCI-H522
  inhibition of growth at 10 µM: < 20%
LOX IMVI
  inhibition of growth at 10 µM: < 20%
HCT-15
  inhibition of growth at 10 µM: 20.6%
SR
  inhibition of growth at 10 µM: < 20%
HCT-116
  inhibition of growth at 10 µM: < 20%
HOP-92
  inhibition of growth at 10 µM: < 20%
SF-295
  inhibition of growth at 10 µM: < 20%
UO-31
  inhibition of growth at 10 µM: < 20%
Hs-578T
  inhibition of growth at 10 µM: < 20%
OVCAR-4
  inhibition of growth at 10 µM: < 20%
K562
  inhibition of growth at 10 µM: < 20%
IGROV-1
  inhibition of growth at 10 µM: < 20%
OVCAR-8
  inhibition of growth at 10 µM: < 20%
SW-620
  inhibition of growth at 10 µM: < 20%
